In EPA's ToxValDB 9.5:
“And” between values parts separate entries of the source, which are not always exact repeats. Equal values may be shown once.

Legend:
Rattus norvegicus [1] = details: subchronic; oral; gavage; M; Sprague-Dawley; Clinical Observation: Salivation Perioral smudge + Body Weight Changes: Gain decrease + Food Consumption: decrease + Hematology: RBC …
Rattus norvegicus [2] = details: uterotrophic; duration: 3 days; injection; subcutaneous; Active
Danio rerio = details: whole body
Rattus norvegicus [3] = test system: Rattus norvegicus
[4] = chronic, duration: 120 days, F, AB-type, E2 + E2:T ratio + gene expression
[5] = chronic, duration: 120 days, M/F, AB-type, fertilization rate + malformation rate + survival rate
[6] = chronic, duration: 120 days, M, AB-type, E2 + E2:T ratio + gene expression + liver: vtg1 expression + T
[7] = developmental, duration: 21 days, M/F, developmental lesion
[8] = short-term, duration: 28 days, F, VTG expression
[9] = short-term, duration: 28 days, F, thymus: Free T3
[10] = reproduction developmental, duration: 4 days, oral, gavage, F, Sprague-Dawley, generation: P0, P0: dam body weight gain
[11] = short-term, duration: 3 days, injection, subcutaneous, F, Sprague-Dawley, uterus: absolute blotted uterine weight in the presence of EE
[12] = short-term, duration: 10 days, oral, gavage, M, BrlHan:WIST, body weight + male accessory sex gland: BC/LA weight (relative)
[13] = short-term, duration: 10 days, oral, gavage, M, BrlHan:WIST, male accessory sex gland: glans penis weight (relative)
[14] = short-term, duration: 10 days, oral, gavage, M, BrlHan:WIST, male accessory sex gland: relative bulbourethral gland weight in the presence of TP + penis: relative penis weight in the absence of TP
[15] = short-term, duration: 14 days, oral, gavage, M, Sprague-Dawley, body weight + serum LH + serum TCHO
[16] = short-term, duration: 14 days, oral, gavage, M, Sprague-Dawley, serum FSH
[17] = short-term, duration: 14 days, oral, gavage, M, Sprague-Dawley, serum T + testis: testis/body weight
[18] = short-term, duration: 28 days, oral, gavage, F, Sprague-Dawley, body weight
[19] = short-term, duration: 28 days, oral, gavage, F, Sprague-Dawley, heart: heart weight + thymus: serum T4
[20] = short-term, duration: 28 days, oral, gavage, M, Sprague-Dawley, adrenal gland: hypertrophy of zona fasciculata + body weight + heart: heart weight + liver: decreased hepatocytic glycogen + liver: liver …

Compound: Oc1ccc(C(c2ccc(O)cc2)(C(F)(F)F)C(F)(F)F)cc1 [Bisphenol AF]
- NOEL (Rattus norvegicus [1]): < 30 mg/kg-day
- LEL (Rattus norvegicus [2]): 4 mg/kg-day and 8 mg/kg-day and 4.04 mg/kg-day
- LOEL (Danio rerio; [4]): 0.125 mg/L
- NOEL (Danio rerio; [4]): 0.025 mg/L
- LOEL (Danio rerio; [5]): 0.125 mg/L
- NOEL (Danio rerio; [5]): 0.025 mg/L
- LOEL (Danio rerio; chronic, duration: 120 days, M/F, AB-type, hatchability): 0.005 mg/L
- LOEL (Danio rerio; [6]): 0.025 mg/L
- NOEL (Danio rerio; [6]): 0.005 mg/L
- LOEL (Danio rerio; [7]): 1.5 mg/L
- NOEL (Danio rerio; [7]): 1 mg/L
- LOEL (Danio rerio; short-term, duration: 21 days, M/F, vitellogenin): 0.5 mg/L
- LOEL (Danio rerio; [8]): 0.25 mg/L
- NOEL (Danio rerio; [8]): 0.05 mg/L
- LOEL (Danio rerio; short-term, duration: 28 days, F, condition factor): 0.05 mg/L
- LOEL (Danio rerio; [9]): 1 mg/L
- NOEL (Danio rerio; [9]): 0.25 mg/L
- LOEL (Danio rerio; short-term, duration: 28 days, M, 17beta-estradiol + VTG expression): 1 mg/L
- NOEL (Danio rerio; short-term, duration: 28 days, M, VTG expression): 0.25 mg/L
- NOEL (Danio rerio; short-term, duration: 28 days, M, body weight + length): 0.05 mg/L
- LOEL (Danio rerio; short-term, duration: 28 days, M, body weight + length + T): 0.25 mg/L
- LOEL (Rattus norvegicus [3]; [10]): 400 mg/kg-day
- NOEL (Rattus norvegicus [3]; [10]): 300 mg/kg-day
- NOEL (Rattus norvegicus [3]; short-term, duration: 3 days, injection, subcutaneous, F, Crj:CD, body weight): 100 mg/kg-day
- LOEL (Rattus norvegicus [3]; short-term, duration: 3 days, injection, subcutaneous, F, Crj:CD, uterus: uterine dry weight (absolute) + uterus: uterine dry weight (relative)): 8 mg/kg-day
- NOEL (Rattus norvegicus [3]; short-term, duration: 3 days, injection, subcutaneous, F, Sprague-Dawley, body weight in the absence of EE + body weight in the presence of EE): 100 mg/kg-day
- LOEL (Rattus norvegicus [3]; short-term, duration: 3 days, injection, subcutaneous, F, Sprague-Dawley, uterus: absolute blotted uterine weight in the absence of EE + uterus: relative blotted uterine weight in the absence of EE + uterus: …): 4 mg/kg-day
- LOEL (Rattus norvegicus [3]; [11]): 20 mg/kg-day
- NOEL (Rattus norvegicus [3]; [11]): 4 mg/kg-day
- LOEL (Rattus norvegicus [3]; [12]): 200 mg/kg-day
- NOEL (Rattus norvegicus [3]; [12]): 50 mg/kg-day
- NOEL (Rattus norvegicus [3]; short-term, duration: 10 days, oral, gavage, M, BrlHan:WIST, male accessory sex gland: Cowper's gland weight (relative) + male accessory sex gland: seminal vesicle weight (relative) + male accessory …): 600 mg/kg-day
- LOEL (Rattus norvegicus [3]; [13]): 600 mg/kg-day
- NOEL (Rattus norvegicus [3]; [13]): 200 mg/kg-day
- NOEL (Rattus norvegicus [3]; short-term, duration: 10 days, oral, gavage, M, BrlHan:WIST, male accessory sex gland: relative bulbourethral gland weight in the absence of TP + male accessory sex gland: relative seminal vesicle …): 600 mg/kg-day
- LOEL (Rattus norvegicus [3]; [14]): 600 mg/kg-day
- NOEL (Rattus norvegicus [3]; [14]): 200 mg/kg-day
- LOEL (Rattus norvegicus [3]; short-term, duration: 10 days, oral, gavage, M, BrlHan:WIST, male accessory sex gland: relative seminal vesicle weight in the presence of TP + penis: relative penis weight in the presence of TP): 50 mg/kg-day
- LOEL (Rattus norvegicus [3]; [15]): 50 mg/kg-day
- NOEL (Rattus norvegicus [3]; [15]): 10 mg/kg-day
- LOEL (Rattus norvegicus [3]; [16]): 10 mg/kg-day
- NOEL (Rattus norvegicus [3]; [16]): 2 mg/kg-day
- LOEL (Rattus norvegicus [3]; [17]): 200 mg/kg-day
- NOEL (Rattus norvegicus [3]; [17]): 50 mg/kg-day
- NOEL (Rattus norvegicus [3]; short-term, duration: 14 days, oral, gavage, M, Sprague-Dawley, testis: testis weight): 200 mg/kg-day
- NOEL (Rattus norvegicus [3]; short-term, duration: 28 days, oral, gavage, F, Sprague-Dawley, adrenal gland: hypertrophy of zona fasciculata + bone marrow: decreased hematopoiesis + brain: brain weight + liver: decreased hepatocytic …): 100 mg/kg-day
- LOEL (Rattus norvegicus [3]; [18]): 30 mg/kg-day
- NOEL (Rattus norvegicus [3]; [18]): 10 mg/kg-day
- LOEL (Rattus norvegicus [3]; [19]): 100 mg/kg-day
- NOEL (Rattus norvegicus [3]; [19]): 30 mg/kg-day
- NOEL (Rattus norvegicus [3]; short-term, duration: 28 days, oral, gavage, M, Sprague-Dawley, adrenal gland: adrenals weight + bone marrow: decreased hematopoiesis + brain: brain weight + spleen: decreased extramedullary hematopoiesis…): 100 mg/kg-day
- LOEL (Rattus norvegicus [3]; [20]): 100 mg/kg-day
- NOEL (Rattus norvegicus [3]; [20]): 30 mg/kg-day
